Data taken from patent US20240368151A1, “NOVEL ERGOLINES AND METHODS OF TREATING MOOD DISORDERS” (priority 2021, published 2024).

Tested on: C57BL/6 mice
Assay: Marble burying test (MBT) in mice
Format: in vivo, mouse
Conditions: SC, 30-minute period
Method: Compound 1 produced an anxiolytic-like effect in the marble burying test (MBT) in C57BL/6 mice (FIG. 3).
Animals. Adult male C57BL/6 mice, aged 8-10 weeks (body weight 20-25 g) were used in these experiments. Animals were housed under controlled temperatures and 12-hour light/dark cycles (lights on between 07:00-19:00 h), with ad libitum food and water. This study was carried out in strict accordance with the requirements of the Committee for the Purpose of Control and Supervision of Experiments on Animals (CPCSEA), India. All efforts were made to minimize suffering.
Drugs and Drug Administration. Compound 1 was synthesized as described above. Desipramine HCl was commercially obtained. The test compound, vehicle, and the positive control desipramine were administered subcutaneously (SC), with doses calculated based on the freebase. Normal saline was used as the vehicle. All compounds were administered at a volume of 10 mL/kg. All treatments were administered 30 minutes prior to the start of behavioral testing. Group size was n=9-10 per treatment.
Marble Burying Test (MBT). […] Mice were handled for about 2 min daily for the 3 days prior to the beginning of the experimental procedure. […] The total number of marbles buried were counted in three 10-minute time bins (total 30 minutes). […]

CCCN1C[C@H](C(=O)N(CC)CC)C=C2c3cccc4[nH]cc(c34)C[C@H]21 [Compound 1, (6aR,9R)-N,N-diethyl-7-propyl-4,6,6a,7,8,9-hexahydroindolo[4,3-fg]quinoline-9-carboxamide]
number of marbles buried compared to vehicle, in words: reduced the number of marbles buried
